{
  "source": "ChEMBL document CHEMBL1151639",
  "about": "“Antibacterial sesquiterpene aryl esters from Armillaria mellea” (J Nat Prod, 1985)",
  "assay_type_in_all_cases": "functional, organism-based",
  "key": {"[1]": {"test_system": "Staphylococcus aureus", "experiment": "Antibacterial activity against Staphylococcus aureus 209P ATCC 53156"}, "[2]": {"test_system": "Pseudomonas aeruginosa", "experiment": "Antibacterial activity against Pseudomonas aeruginosa"}, "[3]": {"test_system": "Bacillus subtilis", "experiment": "Antibacterial activity against Bacillus subtilis 5262 ATCC 6633"}, "[4]": {"test_system": "Escherichia coli", "experiment": "Antibacterial activity against Escherichia coli"}},
  "note": "Active and inactive are the calls of the source. The rule behind the calls is not given here.",
  "data": [
    {"smiles": "CO[C@]12C(C=O)=C[C@@H]3CC(C)(C)C[C@@H]3[C@@]1(C)C[C@H]2OC(=O)c1c(C)cc(O)cc1O", "values": [
      {"measurement": "Activity", "setting": "[1]", "result": "Active"},
      {"measurement": "Activity", "setting": "[2]", "result": "inactive"},
      {"measurement": "Activity", "setting": "[3]", "result": "Active"},
      {"measurement": "Activity", "setting": "[4]", "result": "inactive"}
    ]}
  ]
}
